In PubChem BioAssay (NCI) one finds TGI data, which are given here for 13 molecules.

What all share (assay): NCI anticancer screen, dose series, 48 h
Assay [1] deals with EKVX NSCLC.
For assay [2], the system named is HT29 colon.
The subject of assay [3] is NCI-H460 lung.
In assay [4] the test system is OVCAR-5 ovarian.
In assay [5] the test system is SF-268 CNS.
The test system of assay [6] is SF-295 CNS.
In assay [7] the test system is SK-OV-3 ovarian.
Assay [8] has as its system SW-620 colon.
For assay [9], the system named is T-47D breast.
For assay [10], the system named is UACC-257 melanoma.

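Interpolation was linear, between the two tested concentrations surrounding the appropriate level; five concentrations were tested over 48 hours in 96-well plates. The concentration for full growth arrest is given as TGI.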 Bounds are passed on as bounds.

On to `O=CC(I)=C(c1ccccc1)c1ccccc1`, for which the TGI is 36 µM in assay [1]; 29.4 µM in [2]; 32.8 µM in assay [3]; 40.7 µM in [4]; greater than 56.8 µM in [5]; 31.6 µM in assay [6]. Moreover, the TGI in assay [7] worked out at 29.9 µM; in [8] it was 19.9 µM; in assay [9], 34.9 µM; in [10], 42.3 µM.

In the case of `C[C@@H]1CC[C@@]2(C)C(C(=O)O)=CCCC2[C@@]1(C)CC(=O)c1ccoc1` (stereo not given in full), the TGI in assay [1], in assay [2], in [3], in [4], in assay [5] and in [6] was greater than 25 µM in each case. Moreover, the TGI in assay [7], in [8], in [9] and in [10] was greater than 25 µM in each case.

Regarding `O=C(/C=C/c1ccc(O)c(O)c1)OCCc1ccc2ccccc2c1`, the TGI in assay [1] came out at 28.7 µM; in [2], 25.6 µM; in assay [3], 23.7 µM; in assay [4], 29.7 µM; in assay [5], 27 µM; in [6], 23.7 µM. Moreover, the TGI was determined as 26.3 µM in assay [7], 20.7 µM in assay [8], 18.7 µM in assay [9] and 23.3 µM in assay [10].

Take `CCc1c(O)cc(=O)oc1-c1ccc(OC)c(OC)c1`: the TGI in [1], in assay [2], in assay [3], in [4], in [5] and in assay [6] was greater than 100 µM throughout. The TGI in [7], in assay [8], in [9] and in assay [10] was greater than 100 µM throughout.

With `c1ccc(C2=NC3OC2c2ccccc23)cc1` (stereo not given), the TGI in [1], in assay [2], in assay [3], in assay [4], in assay [5] and in assay [6] was greater than 10 µM in each case. Moreover, the TGI in assay [7], in assay [8], in assay [9] and in assay [10] was greater than 10 µM throughout.

Consider `[N-]=[N+]=CC(=O)C1CCCN1C(=O)c1ccccc1` (stereo not given), for which the TGI in assay [1], in [2], in [3], in assay [4], in assay [5] and in [6] was greater than 10 µM throughout. The TGI in assay [7], in [8], in [9] and in [10] was greater than 10 µM each time.

Consider `O=C(ON=C1c2ccccc2C(Br)C(Br)c2ccccc21)c1ccccc1` (stereo not given), for which the TGI in assay [1] was found to be 46.6 µM; in assay [2], 38 µM; in [3] it was 18.8 µM; in [4], 35.6 µM; in [5] it was 42.3 µM; in assay [6] it was 36.4 µM. Moreover, the TGI in assay [7] was found to be 38.9 µM; in assay [8] it was 28.6 µM; in assay [9] it was 29.3 µM; in [10] it was 41.7 µM.

For `CCOC1C=CC(=O)C(CO)O1` (stereo not given), the TGI in assay [1] was 33.3 µM; in assay [2], 25.4 µM; in assay [3], 30.9 µM; in assay [4] it was 35.2 µM; in [5], 32.5 µM; in assay [6], 33.2 µM. The TGI was 33.3 µM in assay [7], 29.6 µM in [8], 24.9 µM in assay [9] and 19.9 µM in assay [10].

With `O=C(CC(NC(=O)C(F)(F)F)C(=O)O)OCc1ccccc1` (stereo not given), the TGI in [1], in [2], in [3], in assay [4], in assay [5] and in assay [6] was greater than 100 µM throughout. Further, the TGI in assay [7], in assay [8], in assay [9] and in assay [10] was greater than 100 µM in each case.

As for `COC(=O)[C@]1(C)CCC[C@@]2(C)C1CC[C@]13C=C(C(C)C)[C@H](CC21)CC3(Cl)C#N` (stereo not given in full), the TGI in [1] was 77.3 µM; in assay [2], greater than 100 µM; in assay [3], greater than 100 µM; in [4], greater than 100 µM; in assay [5] it was greater than 100 µM; in [6], greater than 100 µM. In addition, the TGI was greater than 100 µM in [7], greater than 100 µM in [8], 55.8 µM in assay [9] and greater than 100 µM in [10].

For `COc1ccc(N=Nc2c(-c3c(OC)cc4occc4c3OC)[nH]c(=O)c(C#N)c2C)cc1`, the TGI in assay [1], in assay [2], in assay [3], in assay [4], in assay [5] and in assay [6] was greater than 100 µM throughout. Also, the TGI in assay [7], in [8], in assay [9] and in [10] was greater than 100 µM each time.

As for `S=C(Cc1ccc2c(c1)Sc1ccccc1O2)N1CCOCC1`, the TGI in [1], in assay [2], in [3], in assay [4], in [5] and in assay [6] was greater than 100 µM in each case. The TGI in assay [7], in assay [8], in [9] and in [10] was greater than 100 µM each time.

With `COc1ccc2nc(NC(=O)/C(C#N)=C/c3ccccc3)sc2c1`, the TGI in [1] is greater than 100 µM; in [2], greater than 96.1 µM; in assay [3], greater than 100 µM; in [4], greater than 100 µM; in assay [5], greater than 100 µM; in [6], greater than 100 µM. In addition, the TGI in assay [7], in assay [8], in assay [9] and in [10] was greater than 100 µM in each case.
